The target of this assay is human recombinant ATX (Homo sapiens, UniProt Q13822). Description: Enzyme inhibition test (choline release from LPC, Amplex UltraRed fluorescence). The note with it: 200 μM LPC substrate, 1 hr at room temperature, read-out: Experimental Example 1 human ATX IC50. It is filed as biochemical. On the procedure: [Enzyme Inhibition Test Method]
A mixture (10 μL) of substrate and a set of choline quantification reagents (200 μM LPC (1-Oleoyl-sn-glycero-3-phosphocholine Sigma #L1881), 25 μM Amplex UltraRed reagent (Invitrogen), 0.1 U/mL Peroxidase (TOYOBO), 1 U/mL Choline oxidase (TOYOBO)), prepared with assay buffer (50 mM Tris (pH 8.0), 140 mM NaCl, 5 mM KCl, 1 mM CaCl2, 1 mM MgCl2, 0.1% BSA (Albumin from bovine serum, SIGMA), 0.0025% Triton X-100), enzyme (0.4 ng/μL human recombinant ATX) (10 μL), compound-containing solution (100 nL) were dispensed to a 384-well plate, incubated at room temperature for 1 hr and the fluorescence (Ex. 525 nm/Em. 598 nm) was measured. As the standard, choline chloride was used. With a blank free of enzyme was taken as inhibitory rate 100%, and a control free of inhibitor as inhibitory rate 0%, the inhibitory rate was calculated, and IC50 value was calculated from the inhibitory activity percentage at each concentration.

A word on the IC50: it is the concentration that gives 50% inhibition.

`COc1ccc(-c2cnnc(COc3ccc(C(F)(F)F)cc3)c2)cc1[C@@H]1C[C@H]1C(=O)O` (relative stereo) [Example 3, trans-2-[2-methoxy-5-(6-{[4-(trifluoromethyl)phenoxy]methyl}pyridazin-4-yl)phenyl]cyclopropanecarboxylic Acid]: the half-inhibitory concentration (IC50) was found to be 35 nM.

For `COc1ccc(-c2cnnc(CCc3ccc(OC(F)(F)F)cc3)c2)cc1[C@@H]1C[C@H]1C(=O)O` (relative stereo) [Example 4, trans-2-[2-methoxy-5-(6-{2-[4-(trifluoromethoxy)phenyl]ethyl}pyridazin-4-yl)phenyl]cyclopropanecarboxylic Acid], the concentration for half-maximal inhibition (IC50) worked out at 17 nM.

On to `C[C@@]1(C(=O)O)C[C@H]1[C@H]1CN(c2cncc(OC[C@H]3CC[C@H](C(F)(F)F)CC3)c2)CCO1` (relative stereo) [Example 20, trans-1-methyl-2-[(2S)-4-(5-{[trans-4-(trifluoromethyl)cyclohexyl]methoxy}pyridin-3-yl)morpholin-2-yl]cyclopropanecarboxylic Acid], for which the IC50 was 2 nM.

With `O=C(O)/C=C/CC1COCCN1c1cncc(OCc2ccc(OC(F)(F)F)cc2)c1` (single isomer, unassigned) [Example 22-2], the IC50 worked out at 74 nM.

Turning to `COc1ccc(-c2cnnc(OC[C@H]3CC[C@H](C(F)(F)F)CC3)c2)nc1[C@H]1C[C@]1(C)C(=O)O` [Example 7-1, (1S,2S)-2-[3-methoxy-6-(6-{[trans-4-(trifluoromethyl)cyclohexyl]methoxy}pyridazin-4-yl)pyridin-2-yl]-1-methylcyclopropanecarboxylic Acid], the half-inhibitory concentration (IC50) worked out at 1 nM.

`COc1ccc(-c2cnnc(OC[C@H]3CC[C@H](C(F)(F)F)CC3)c2)nc1[C@@H]1C[C@@]1(C)C(=O)O` [Example 7-2, (1R,2R)-2-[3-methoxy-6-(6-{[trans-4-(trifluoromethyl)cyclohexyl]methoxy}pyridazin-4-yl)pyridin-2-yl]-1-methylcyclopropanecarboxylic Acid]: the half-maximal inhibitory concentration (IC50) was found to be 2 nM.

`O=C(O)[C@H]1C[C@@H]1c1cc(-c2cnnc(OC[C@H]3CC[C@H](C(F)(F)F)CC3)c2)ccn1` [Example 10-1, (1S,2S)-2-[4-(6-{[trans-4-(trifluoromethyl)cyclohexyl]methoxy}pyridazin-4-yl)pyridin-2-yl]cyclopropanecarboxylic Acid]: the 50% inhibitory concentration (IC50) amounted to 1 nM.

As to `O=C(O)[C@@H]1C[C@H]1c1cc(-c2cnnc(OC[C@H]3CC[C@H](C(F)(F)F)CC3)c2)ccn1` [Example 10-2, (1R,2R)-2-[4-(6-{[trans-4-(trifluoromethyl)cyclohexyl]methoxy}pyridazin-4-yl)pyridin-2-yl]cyclopropanecarboxylic Acid], the IC50 amounted to 3 nM.

In the case of `O=C(O)[C@H]1C[C@@H]1c1cc(-c2cncc(OCc3ccc(OC(F)(F)F)cc3)c2)ccn1` [Example 11-1, (1S,2S)-2-(5-{[4-(trifluoromethoxy)benzyl]oxy}-3,4′-bipyridin-2′-yl)cyclopropanecarboxylic Acid], the concentration for half-maximal inhibition (IC50) was 10 nM.

Turning to `O=C(O)[C@@H]1C[C@H]1c1cc(-c2cncc(OCc3ccc(OC(F)(F)F)cc3)c2)ccn1` [Example 11-2, (1R,2R)-2-(5-{[4-(trifluoromethoxy)benzyl]oxy}-3,4′-bipyridin-2′-yl)cyclopropanecarboxylic Acid], the IC50 turned out to be 25 nM.

With `CC(C[C@H]1CN(c2cncc(OCc3ccc(OC(F)(F)F)cc3)c2)CCO1)C(=O)O` (stereo partly drawn) [Example 17, 2-methyl-3-[(2S)-4-(5-{[4-(trifluoromethoxy)benzyl]oxy}pyridin-3-yl)morpholin-2-yl]propanoic Acid], the IC50 was 56 nM.

`O=C(O)CC[C@H]1CN(c2cncc(CCc3ccc(OC(F)(F)F)cc3)c2)CCO1` [Example 18-1, 3-[(2S)-4-(5-{2-[4-(trifluoromethoxy)phenyl]ethyl}pyridin-3-yl)morpholin-2-yl]propanoic Acid]: the IC50 worked out at 133 nM.

With `O=C(O)COC[C@@H]1COCCN1c1cncc(OCc2ccc(OC(F)(F)F)cc2)c1` [Example 21, {[(3S)-4-(5-{[4-(trifluoromethoxy)benzyl]oxy}pyridin-3-yl)morpholin-3-yl]methoxy}acetic Acid], the IC50 is 56 nM.

As to `O=C(O)COC[C@H]1CCCN1c1cncc(OCc2ccc(OC(F)(F)F)cc2)c1` [Example 24, {[(2R)-1-(5-{[4-(trifluoromethoxy)benzyl]oxy}pyridin-3-yl)pyrrolidin-2-yl]methoxy}acetic Acid], the IC50 is 13 nM.

Take `COc1ccc(-c2cncc(/C=C\c3ccc(OC(F)(F)F)cc3)c2)nc1[C@H]1C[C@@H]1C(=O)O` [Example 27]: the concentration for half-maximal inhibition (IC50) worked out at 56 nM.

For `COc1ccc(-c2cncc(/C=C/c3ccc(OC(F)(F)F)cc3)c2)nc1[C@H]1C[C@@H]1C(=O)O` [Example 28], the IC50 was found to be 4 nM.

In the case of `CCOc1ccc(-c2cnnc(OCC3CCN(CC(F)(F)F)CC3)c2)cc1[C@H]1C[C@@H]1C(=O)O` [Example 30], the IC50 came out at 2 nM.

For the compound `COc1ccc(-c2cncc(OCc3cccc(Cl)c3)c2)cc1C1CC1C(=O)O` (stereo not shown) [Example 32], the concentration for half-maximal inhibition (IC50) stood at 26 nM.

For `COc1ccc(-c2cncc(OCc3cccc(OC(F)(F)F)c3)c2)cc1C1CC1C(=O)O` (stereo not shown) [Example 33], the IC50 stood at 57 nM.

Regarding `COc1ccc(-c2cncc(OCc3ccccc3)c2)cc1C1CC1C(=O)O` (stereo not shown) [Example 34], the half-inhibitory concentration (IC50) stood at 121 nM.

For the compound `O=C(O)c1ccc2c(c1)N(c1cncc(OC[C@H]3CC[C@H](C(F)(F)F)CC3)c1)CC2` [Example 35], the IC50 came to 1 nM.

With `O=C(O)c1ccc2c(c1)CCN2c1cncc(OCc2ccc(OC(F)(F)F)cc2)c1` [Example 36], the IC50 stood at 6 nM.

As for `O=C(O)c1ccc2c(c1)N(c1cncc(OCc3ccc(OC(F)(F)F)cc3)c1)CC2` [Example 37], the concentration for half-maximal inhibition (IC50) stood at 8 nM.

In the case of `O=C(O)c1cccc2c1CCN2c1cncc(OCc2ccc(OC(F)(F)F)cc2)c1` [Example 38], the half-inhibitory concentration (IC50) was 382 nM.

Turning to `O=C(O)c1ccc2c(c1)OCCN2c1cncc(OCc2ccc(OC(F)(F)F)cc2)c1` [Example 40], the IC50 is 12 nM.

Regarding `O=C(O)c1ccc2c(c1)CCCN2c1cncc(OCc2ccc(OC(F)(F)F)cc2)c1` [Example 41], the half-inhibitory concentration (IC50) was 31 nM.

Regarding `O=C(O)c1ccc(C2CN(c3cncc(OCc4ccc(OC(F)(F)F)cc4)c3)CCO2)cc1` (stereo not shown) [Example 42], the IC50 came to 8 nM.

On to `O=C(O)c1cccc(C2CN(c3cncc(OCc4ccc(OC(F)(F)F)cc4)c3)CCO2)c1` (stereo not shown) [Example 43], for which the IC50 was found to be 13 nM.

Take `O=C(O)c1ccccc1C1CN(c2cncc(OCc3ccc(OC(F)(F)F)cc3)c2)CCO1` (stereo not shown) [Example 44]: the IC50 came out at 350 nM.

Consider `COc1ccc(C2CN(c3cncc(OC[C@H]4CC[C@H](C(F)(F)F)CC4)c3)CCO2)cc1C(=O)O` (stereo partly shown) [Example 47], for which the half-maximal inhibitory concentration (IC50) was 3 nM.

Take `COc1ccc(C2CN(c3cncc(OCC4CCN(CC(F)(F)F)CC4)c3)CCO2)cc1C(=O)O` (stereo not shown) [Example 48]: the IC50 was found to be 35 nM.

For `O=C(O)c1ccc(C2CN(c3cncc(OC[C@H]4CC[C@H](C(F)(F)F)CC4)c3)CCO2)cn1` (stereo partly shown) [Example 49], the half-inhibitory concentration (IC50) turned out to be 3 nM.

In the case of `O=C(O)c1ccc(C2CN(c3cncc(OC[C@H]4CC[C@H](C(F)(F)F)CC4)c3)CCO2)nc1` (stereo partly shown) [Example 50], the 50% inhibitory concentration (IC50) was 10 nM.

Consider `O=C(O)c1ccnc(C2CN(c3cncc(OC[C@H]4CC[C@H](C(F)(F)F)CC4)c3)CCO2)c1` (stereo partly shown) [Example 51], for which the 50% inhibitory concentration (IC50) was 5 nM.

The values are drawn from US11958812B2, “3, 5-disubstituted pyridine and 3, 5-disubstituted pyridazine derivatives and pharmaceutical use of same” (MITSUBISHI TANABE PHARMA CORPORATION, priority 2018, dated 2024).
